Common to all, as to assay type: cell-based, mouse
Settings in all cases: 1 week-old, after 1 week of stress treatment, SLO 10 μg/mL, ATP 2.4 mM, Ca 2 mM CaCl2

The test system of assay [1] is Lung somatic cells. The assay can be described thus: Percent of cells demonstrating pluripotent phenotype after stress treatment, lung cells. The text has this: (§1) Stress alteration of mature somatic cells procured from various adult tissues. To examine whether ACCs could be generated not only mature lymphocytes but also other types of somatic cells, brain, skin, muscle, fat, bone marrow, lung and liver were harvested from Oct4-GFP (GOF) mice^8. Cells were isolated from the tissue samples, dissociated into single cells, and treated with different physical and or chemical stress conditions. The efficiency of the process to alter the cells differed as a function of both the source of cells and the stress condition(s) to which the cells were exposed (FIG. 7A). The ability of stress to alter mature cells to express Oct4, differed depending on the derivation of cells, but stress was able to alter cells to express Oct4 to some degree in mature cells derived from all three germ layers (FIG. 7A). ACC colonies derived from any mature tissue expressed pluripotent markers, E-cadherin, Nanog, PCAM-1 and AP (data not shown), and ES specific marker genes (FIG. 7B). Significant physical and chemical stresses altered mature somatic cells to revert to a stem cell state, despite of the source of tissues and derivation of the germ layers.
(§2) Exposure to external stimuli—stress treatment. […]
(§3) Fluorescence-Activated Cell Sorting and Flow Cytometry. […] Cells were sorted on a BD FACSAria SORP and analyzed on a BD LSRII with BD FACSDiva Software (BD Biosciences).

The test system of assay [2] is Fat somatic cells. The assay can be described thus: Percent of cells demonstrating pluripotent phenotype after stress treatment, fat cells.
Description: as §1, §2, §3

Assay [3] deals with Muscle somatic cells. The assay can be described thus: Percent of cells demonstrating pluripotent phenotype after stress treatment, muscle cells.
Description: as §1, §2, §3

Assay [4] deals with Bone Marrow somatic cells. Kind of assay: Percent of cells demonstrating pluripotent phenotype after stress treatment, bone marrow cells.
Description: as §1, §2, §3

Assay [5] relates to Brain somatic cells. Kind of assay: Percent of cells demonstrating pluripotent phenotype after stress treatment, brain cells.
The subject of assay [6] is Fibroblast. The assay can be described thus: Percent of cells demonstrating pluripotent phenotype after stress treatment, fibroblasts.
Description: as §1, §2, §3

Consider streptolysin O [SLO], for which the “Percent of cells demonstrating pluripotent phenotype” value is 18.4% in assay [1]; 32.8% in assay [2]; 20.5% in assay [3]; 13.2% in assay [4]; 10.3% in assay [5]; 15.2% in assay [6].
